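48-hour exposure; five concentrations; linearly interpolated endpoints. Abbreviation: GI50, concentration required for 50% inhibition of growth.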 Activity calls are given as the source filed them. Rule as the data show it: active = GI50 up to about 1.1 µM and inactive = higher.
How the values were obtained:
Assay in all cases: inhibition of tumour cell growth, NCI panel, 48 h
HOP-92 = system: HOP-92
COLO 205 = system: COLO 205
NCI-H23 = system: NCI-H23
OVCAR-5 = system: OVCAR-5
LOX IMVI = system: LOX IMVI
SR = system: SR
U-251 = system: U-251
Malme-3M = system: Malme-3M
NCI-H226 = system: NCI-H226
SF-268 = system: SF-268
SF-295 = system: SF-295
SF-539 = system: SF-539
MDA-MB-435 = system: MDA-MB-435
MDA-N = system: MDA-N
ACHN = system: ACHN
UACC-257 = system: UACC-257
TK-10 = system: TK-10
MOLT-4 = system: MOLT-4
NCI-H522 = system: NCI-H522
CAKI-1 = system: CAKI-1

Row | Compound | GI50 (HOP-92) | GI50 (COLO 205) | GI50 (NCI-H23) | GI50 (OVCAR-5) | GI50 (LOX IMVI) | GI50 (SR) | GI50 (U-251) | GI50 (Malme-3M) | GI50 (NCI-H226) | GI50 (SF-268) | GI50 (SF-295) | GI50 (SF-539) | GI50 (MDA-MB-435) | GI50 (MDA-N) | GI50 (ACHN) | GI50 (UACC-257) | GI50 (TK-10) | GI50 (MOLT-4) | GI50 (NCI-H522) | GI50 (CAKI-1)
1 | CCCCCCCCCCCC[S+](C)C | 1.63 µM (inactive) | 1.29 µM (inactive) | 4.48 µM (inactive) | 8.43 µM (inactive) | 2.86 µM (inactive) | 8.69 µM (inactive) | 5.25 µM (inactive) | 8.38 µM (inactive) | 1.77 µM (inactive) | 6.68 µM (inactive) | 5.87 µM (inactive) | 6.24 µM (inactive) | 3.36 µM (inactive) | 1.23 µM (inactive) | 4.56 µM (inactive) | 4.18 µM (inactive) | 3.15 µM (inactive) | 4.94 µM (inactive) | 3.7 µM (inactive) | 1.57 µM (inactive)
2 | CC1(O)CC(=O)c2c(cc3ccc(-c4c5c(c(O)c6c(O)cccc46)C(=O)CC(C)(O)C5)c(O)c3c2O)C1 (stereo not given) | 0.242 µM (active) | 0.0442 µM (active) | 0.0574 µM (active) | 0.611 µM (active) | 0.817 µM (active) | 0.367 µM (active) | 0.06 µM (active) | 0.248 µM (active) | 0.448 µM (active) | 0.194 µM (active) | 0.179 µM (active) | 0.174 µM (active) | 0.279 µM (active) | 0.867 µM (active) | 0.125 µM (active) | 0.324 µM (active) | 0.767 µM (active) | 0.422 µM (active) | 0.213 µM (active) | 0.401 µM (active)
3 | CCCC(CCC)C(=O)O [VALPROIC ACID] | 9380 µM (inactive) | 4530 µM (inactive) | > 100 µM (inactive) | > 100 µM (inactive) | 6280 µM (inactive) | 8510 µM (inactive) | 8020 µM (inactive) | 4400 µM (inactive) | > 100 µM (inactive) | 2140 µM (inactive) | 7760 µM (inactive) | 15200 µM (inactive) | 10900 µM (inactive) | > 100 µM (inactive) | 5450 µM (inactive) | 4530 µM (inactive) | 8240 µM (inactive) | 11200 µM (inactive) | 3240 µM (inactive) | 7480 µM (inactive)

From ChEMBL document CHEMBL1201862, “PubChem BioAssay data set” (2004)
